Reference: patent US9113629B2, “4-amino-6-(4-substituted-phenyl)-picolinates and 6-amino-2-(4-substituted-phenyl)-pyrimidine-4-carboxylates and their use as herbicides” (DOW AGROSCIENCES LLC, priority 2013, dated 2015)
Read-outs that look alike come from different tables or passages of the source.

Assays:
[1] = test system: Key Grass and Sedge Weeds as well as Grass Crops; experiment: Post-emergent Test II herbicidal activity (Table 6); assay type: in vivo; settings: post-emergence, 336 h; for pest or weed control at 70 g/ha: 70 g ai/ha; for pest or weed control at 140 g/ha: 140 g ai/ha
How it was run: (§1)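 Percent injury, 0 (none) to 100 (complete kill), was judged visually 14 d after spraying young plants at the first or second true leaf stage with compound in an acetone/DMSO aqueous carrier at 187 L/ha. Plants were kept in a greenhouse at 23–29 °C by day.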

[2] = test system: Key Broadleaf Weed and Crop Species; experiment: Post-emergent Test II herbicidal activity (Table 5); assay type: in vivo; settings: post-emergence, 336 h, 14 days after application; for pest or weed control at 70 g/ha: application rate 70 g ai/ha; for pest or weed control at 140 g/ha: application rate 140 g ai/ha
How it was run: as §1

[3] = CYPES: yellow nutsedge (Cyperus esculentus), read-out: Visual Growth Reduction (%) 14 Days After Application, CYPES
[4] = DIGSA: crabgrass (Digitaria sanguinalis), read-out: Visual Growth Reduction (%) 14 Days After Application, DIGSA
[5] = ECHCG: barnyardgrass (Echinochloa crus-galli), read-out: Visual Growth Reduction (%) 14 Days After Application, ECHCG
[6] = ORYSA: rice (Oryza sativa), crop, read-out: Visual Growth Reduction (%) 14 Days After Application, ORYSA
[7] = SETFA: giant foxtail (Setaria faberi), read-out: Visual Growth Reduction (%) 14 Days After Application, SETFA
[8] = SORVU: grain sorghum (Sorghum vulgare), read-out: Visual Growth Reduction (%) 14 Days After Application, SORVU
[9] = TRZSS (wheat, Triticum aestivum), crop, read-out: Visual Growth Reduction (%) 14 Days After Application, TRZSS
[10] = ZEAMX: maize, corn (Zea mays), crop, read-out: Visual Growth Reduction (%) 14 Days After Application, ZEAMX
[11] = ABUTH: velvetleaf (Abutilon theophrasti), read-out: Visual Growth Reduction (%) 14 Days After Application, ABUTH
[12] = AMARE: redroot pigweed (Amaranthus retroflexus), read-out: Visual Growth Reduction (%) 14 Days After Application, AMARE
[13] = BRSNN: oilseed-rape, canola (Brassica napus), read-out: Visual Growth Reduction (%) 14 Days After Application, BRSNN
[14] = CHEAL: lambsquarters (Chenopodium album), read-out: Visual Growth Reduction (%) 14 Days After Application, CHEAL
[15] = EPHHL: wild poinsettia (Euphorbia heterophylla), read-out: Visual Growth Reduction (%) 14 Days After Application, EPHHL
[16] = HELAN: sunflower (Helianthus annuus), read-out: Visual Growth Reduction (%) 14 Days After Application, HELAN
[17] = VIOTR: wild pansy (Viola tricolor), read-out: Visual Growth Reduction (%) 14 Days After Application, VIOTR

COC(=O)c1nc(-c2ccc(I)cc2)c(F)c(N)c1Cl [Compound 118, Methyl 4-amino-6-(4-iodophenyl)-3-chloro-5-fluoropicolinate]
pest or weed control at 70 g/ha [1, 3]: 95 to 100%
pest or weed control at 140 g/ha [1, 3]: 95 to 100%
pest or weed control at 70 g/ha [1, 4]: 75 to 84%
pest or weed control at 140 g/ha [1, 4]: 85 to 94%
pest or weed control at 70 g/ha [1, 5]: 95 to 100%
pest or weed control at 140 g/ha [1, 5]: 95 to 100%
pest or weed control at 70 g/ha [1, 6]: 30 to 44%
pest or weed control at 140 g/ha [1, 6]: 45 to 59%
pest or weed control at 70 g/ha [1, 7]: 45 to 59%
pest or weed control at 140 g/ha [1, 7]: 60 to 74%
pest or weed control at 70 g/ha [1, 8]: 95 to 100%
pest or weed control at 140 g/ha [1, 8]: 95 to 100%
pest or weed control at 70 g/ha [1, 9]: 75 to 84%
pest or weed control at 140 g/ha [1, 9]: 75 to 84%
pest or weed control at 70 g/ha [1, 10]: 60 to 74%
pest or weed control at 140 g/ha [1, 10]: 85 to 94%
pest or weed control at 70 g/ha [2, 11]: 95 to 100%
pest or weed control at 140 g/ha [2, 11]: 95 to 100%
pest or weed control at 70 g/ha [2, 12]: 95 to 100%
pest or weed control at 140 g/ha [2, 12]: 95 to 100%
pest or weed control at 70 g/ha [2, 13]: 95 to 100%
pest or weed control at 140 g/ha [2, 13]: 95 to 100%
pest or weed control at 70 g/ha [2, 14]: 95 to 100%
pest or weed control at 140 g/ha [2, 14]: 95 to 100%
pest or weed control at 70 g/ha [2, 15]: 95 to 100%
pest or weed control at 140 g/ha [2, 15]: 95 to 100%
pest or weed control at 70 g/ha [2, 16]: 95 to 100%
pest or weed control at 140 g/ha [2, 16]: 95 to 100%
pest or weed control at 70 g/ha [2, 17]: 85 to 94%
pest or weed control at 140 g/ha [2, 17]: 95 to 100%
